In US20070015771A1, “Lonidamine analogs” (Threshold pharmaceuticals, Inc., priority 2004, published 2007):

Assays:
CD-1 mice = test: Tolerance study in CD-1 mice; assay type: in vivo, mouse
Text: The toxicological end-points in this study were standard clinical observations such as changes in movement, breathing, food consumption, mortality and decreased body weight.

PWR-1E cells = test: BrdU-TUNEL apoptosis assay; assay type: cell-based; details: for % Non-apoptotic cells / % apoptotic cells: PWR-1E cells, 24 h
Experimental: The effect of compound 1 (as described in Example 1 above) on apoptosis was determined as follows. PWR-1E cells (2×10^5 cells/ml/well) were seeded in a 24 well plate. The culture media were removed after 24 h, the cells were rinsed with PBS buffer (200 μL) and incubated (5 min, 37° C.) with a solution of Guava Viacount CDR in PBS (1:3 v/v). Media (750 μL) containing at least 5% FBS was added to each well, the cells released by repeated pipeting, centrifuged, and the supernatant aspirated. The cells were resuspended in PBS buffer (150 μL) and fixed by incubating (60 min, 4° C.) with 4% paraformaldehyde in PBS. The cells were centrifuged, and the supernatant removed to a final volume of 15 μL. The cell pellets were resuspended, followed by dropwise addition of 200 μl of ice-cold ethanol (70%), and the cells incubated at −20° C. at least for 2 hr. The cells were centrifuged, the supernatant removed, washed, and incubated with the DNA labeling mix (37° C., 60 min). The cells were washed, incubated (30 min) with anti-BrdU staining mix, washed again and analyzed on a Guava PCA-96 system (Guava Technologies, 25801 Industrial Boulevard, Hayward Calif. 94545-2991, USA).

mouse prostate [1] = test: Mouse study, 10 days oral, prostate weight; assay type: in vivo; details: C57B1/6J mice, oral daily for 10 days, 0.2-20 mg/kg
Experimental: The control mice received an equal amount of the vehicle (carboxymethylcellulose). […] Relative weights of entire prostate and individual lobes were calculated by dividing the corresponding absolute weight by the total weight of the mouse. Relative weights of the entire prostate, the dorsal prostate, and the ventral prostate were calculated by dividing the absolute weight by the total weight of the mouse. Relative weights of the left and right testis were calculated by dividing the corresponding absolute weights by the total weights of the mouse.

LNCaP cells [2] = test: Antiproliferation assay (Alamar Blue), LNCaP cells; assay type: cell-based, human; details: 3 day treatment, read-out: GI50 LNCaP cell 3days
Experimental: To determine the effect of lonidamine and analogs thereof on cell proliferation, the antiproliferative activity of these compounds was tested in a multi-well Alamar Blue based assay (at 2 h and 3 days). Cell growth in the presence and absence of the test compound (compounds 1-22) was compared, as measured by a fluorescence plate reader at excitation 550 nm and emission 590 nm (see Biosource International Inc., Tech Application Notes, Use of Alamar Blue in the measurement of Cell Viability and Toxicity, Determining IC50). H460 cells (ATCC HTB-177 ([…]), 4,000 cells/well/200 μl) and LNCap cells (ATCC CRL-1740, 6,000 cells/well/200 μl) were seeded in a 96 well plate in RPMI medium (Invitrogen Corporation, Carlsbad, Calif.). After 24 hours, these plates were divided into 3 groups—Control group, 2 h treatment group and 3 day treatment group. In the 2 h treatment group, after 2 h the cells were rinsed to remove the test compound and incubated for 3 days, followed by staining with AlamarBlue. The cells in the 3 day treatment group were incubated for 3 days, followed by staining with AlamarBlue. In the Control group, AlamarBlue was added to the plate at (i) day 0 and (ii) day 3 and measured to establish the control reading.

mouse prostate [3] = test: Mouse study, 5 days oral, prostate weight and histomorphology; assay type: in vivo; details: C57B1/6J mice
Experimental: The effect of Compound 1 on the mouse prostate was determined as follows. Compound 1 was orally administered daily for 5 days to male, C57B1/6J mice, (n=5, 6-8 weeks old) 1 at 2, 5, and 20 mg/kg (as a 1% carboxymethylcellulose formulation). The control mice received an equal amount of the vehicle (carboxymethylcellulose). On day 6 the mice were sacrificed and the entire prostate and the individual lobes (e.g., the dorsal lobe and the ventral lobe) were weighed to measure absolute weights. Relative weights of prostate and individual lobes were calculated by dividing the absolute weight by the total weight of the mouse. Relative weights of the entire prostate, the dorsal prostate, and the ventral prostate were calculated by dividing the absolute weight by the total weight of the mouse. Both the absolute entire prostate and relative entire prostate weights reduced in the 5 and 20 mg/kg groups compared to the control group. The histomorphology of the prostate was also analyzed and compared to that of the control or untreated prostate as illustrated in FIGS. 1-3, showing […].

testes = test: 5 day systemic administration in male SH rats, testis; assay type: in vivo, rat; details: male SH rats, oral daily for 5 days at 50 mg/ml, day 6
LNCaP cells [4] = test: Cell cycle analysis; assay type: cell-based, human; details: for % G0/G / % G2/M / % S: 24 h
Experimental: The effect of compound 1 (as described in Example 1 above) on the cell cycle was determined as follows. LNCaP cells (2×10^5 cells/ml/well) were seeded in a 24 well plate. The culture media were removed after 24 h, the cells were trypsinized and centrifuged. The cell pellets were resuspended in 100 μl PBS buffer, after which 300 μl of ice-cold ethanol (96%) added dropwise, and the cells were incubated at 4° C. for at least 24 hr. The cells were centrifuged and the supernatant was discarded. The cell cycle staining reagent (Guava Technologies, Hayward, Calif., USA, 200 μl) was added to each well. The cells were shielded from light and incubated at room temperature for 30 min. The samples were analyzed (Guava PCA-96 instrument, Cytosoft software, Guava Technologies, 25801 Industrial Boulevard, Hayward Calif. 94545-2991, USA) as tabulated below.

[5] = oral daily for 5 days, 5 and 20 mg/kg groups vs control

For `O=C(NO)c1nn(Cc2ccc(Cl)cc2Cl)c2ccccc12` [Compound 1], the tolerated dose (CD-1 mice; CD-1 mice, oral dosing for 5 days) was 500 mg/kg/day, the “therapeutic index compared to lonidamine” value (CD-1 mice; mice, when used for prostate weight reduction) was 10 fold and the “apoptosis in PWR1E cells” value (PWR-1E cells; PWR1E cells) was “induces apoptosis”. The “% Non-apoptotic cells” value (PWR-1E cells; 3.1 μM) was 90%, the “% apoptotic cells” value (PWR-1E cells; 3.1 μM) was 10% and the “% Non-apoptotic cells” value (PWR-1E cells; 6.2 μM) was 88%. The “% apoptotic cells” value (PWR-1E cells; 6.2 μM) was 12%, the “% Non-apoptotic cells” value (PWR-1E cells; 12.5 μM) was 78% and the “% apoptotic cells” value (PWR-1E cells; 12.5 μM) was 22%. For the same compound, the “% Non-apoptotic cells” value (PWR-1E cells; 25 μM) was 48%, the “% apoptotic cells” value (PWR-1E cells; 25 μM) was 52% and the “absolute dorsal prostate weight (FIG. 10)” value (mouse prostate [1]) was “dose dependent reduction”. For the same compound, the “absolute ventral prostate weight (FIG. 9)” value (mouse prostate [1]) was “dose dependent reduction”, the “absolute whole prostate weight (FIG. 11)” value (mouse prostate [1]) was “dose dependent reduction” and the prostate weight (mouse prostate [1]) was “dose dependent reduction”. For the same compound, the “relative dorsal prostate weight (FIG. 7)” value (mouse prostate [1]) was “dose dependent reduction”, the “relative ventral prostate weight (FIG. 8)” value (mouse prostate [1]) was “dose dependent reduction” and the “relative whole prostate weight (FIG. 6)” value (mouse prostate [1]) was “dose dependent reduction”. For the same compound, the GI50 (LNCaP cells [2]) was 40 µM, the “histomorphology of the prostate” value (mouse prostate [3]; oral daily for 5 days, 2, 5, 20 mg/kg) was “dose-dependent disorganization of the epithelial cells” and the “absolute entire prostate weight” value (mouse prostate [3]; [5]) was “reduced”. The “relative entire prostate weight” value (mouse prostate [3]; [5]) was “reduced”, the Testis shrinkage (testes) was −2.5% and the “effect on the cell cycle” value (LNCaP cells [4]; 2.5-200 μM) was “does not have a measurable effect”. For the same compound, the “% G0/G” value (LNCaP cells [4]; 2.5 μM) was 59%, the “% G2/M” value (LNCaP cells [4]; 2.5 μM) was 27% and the “% S” value (LNCaP cells [4]; 2.5 μM) was 11%. For the same compound, the “% G0/G” value (LNCaP cells [4]; 7.4 μM) was 56%, the “% G2/M” value (LNCaP cells [4]; 7.4 μM) was 26% and the “% S” value (LNCaP cells [4]; 7.4 μM) was 15%. For the same compound, the “% G0/G” value (LNCaP cells [4]; 22.2 μM) was 57%, the “% G2/M” value (LNCaP cells [4]; 22.2 μM) was 25% and the “% S” value (LNCaP cells [4]; 22.2 μM) was 11%. For the same compound, the “% G0/G” value (LNCaP cells [4]; 66.7 μM) was 51%, the “% G2/M” value (LNCaP cells [4]; 66.7 μM) was 24% and the “% S” value (LNCaP cells [4]; 66.7 μM) was 19%. For the same compound, the “% G0/G” value (LNCaP cells [4]; 200 μM) was 41%, the “% G2/M” value (LNCaP cells [4]; 200 μM) was 17% and the “% S” value (LNCaP cells [4]; 200 μM) was 18%.
